The text below walks through data of ChEMBL document CHEMBL1201862, “PubChem BioAssay data set” (2004).

A short description of assay [1]: HEK293 cell cytotoxicity, dose response, cytotoxicity control, cherry-picks, set 5 (AID 1053117). It counts as functional, cell-based.
Assay [2] in a line: inhibitors of fibronectin matrix deposition, dose response, AH1F cells, Alexa488-FN fluorescence, cherry-picks (AID 1035475). It counts as functional, cell-based.
The target in assay [3] is T1, Oxysterols receptor LXR-beta (Homo sapiens, UniProt P55055).
T1 sequence (P55055 whole entry): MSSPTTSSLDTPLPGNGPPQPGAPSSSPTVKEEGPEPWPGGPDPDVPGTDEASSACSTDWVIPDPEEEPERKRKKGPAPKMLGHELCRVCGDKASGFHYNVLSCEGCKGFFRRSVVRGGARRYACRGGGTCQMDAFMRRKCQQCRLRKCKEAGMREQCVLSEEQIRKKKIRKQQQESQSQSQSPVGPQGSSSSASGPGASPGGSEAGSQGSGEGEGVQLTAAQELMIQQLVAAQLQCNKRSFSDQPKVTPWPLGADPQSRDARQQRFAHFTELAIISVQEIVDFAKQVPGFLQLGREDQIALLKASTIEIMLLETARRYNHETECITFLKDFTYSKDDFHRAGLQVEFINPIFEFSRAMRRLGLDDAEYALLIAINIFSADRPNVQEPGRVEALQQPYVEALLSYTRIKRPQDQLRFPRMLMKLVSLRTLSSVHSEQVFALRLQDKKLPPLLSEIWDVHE
It counts as functional, cell-based.

Assay [4] has as its system BJ. The assay is described as follows: cytotoxicity toward BJ-TERT fibroblasts, dose response, cell-based, RAS-independent, luminescence (AID 1933). Type of assay: functional. As to conditions: Homo sapiens.
Assay [5] concerns BJ. The assay is described as follows: cells. Type of assay: functional, cell-based. As to conditions: Homo sapiens.
Assay [6] concerns BJ. The assay is described as follows: cytotoxicity toward BJ-TERT-LT-ST fibroblasts, dose response, cell-based, RAS-independent, luminescence (AID 1935).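 Also: BJ fibroblasts immortalized with TERT plus LT and ST oncogenes.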 It counts as functional. As to conditions: Homo sapiens.
Assay [7] is described as follows: cytotoxicity toward DRD oncogenic fibroblasts, dose response, cell-based, non-viral oncogenic, luminescence (AID 1934). It counts as functional. Conditions: Homo sapiens.
A short description of assay [8]: HEK293 cell cytotoxicity, dose response, cytotoxicity control, dry powder samples (AID 720567). It counts as functional, cell-based.
Assay [9] is described as follows: HEK293T cell cytotoxicity, dose response, cytotoxicity control, CellTiter-Glo luminescence, dry powder, set 6 (AID 651949). Type of assay: functional, cell-based. As to conditions: HEK293. (Cellular ATP, detected with luciferase, serves as a proxy for viable cell number.)
In assay [10] the target is T2, Potassium channel subfamily K member 9 (Homo sapiens, UniProt Q9NPC2). The assay is described as follows: KCNK9 (TASK3) current inhibition by patch clamp, SAR follow-up, selectivity assay for TASK1 (KCNK3) inhibitor project, cell-based, automated electrophysiology (AID 652210). It counts as functional. A general note: The patch-clamp technique gives a direct electrical read-out from membranes.

In assay [11] the target is T2, Potassium channel subfamily K member 9. Nature of the assay: TASK3 (KCNK9) channel inhibitors, thallium flux, SAR follow-up, selectivity assay for TASK1 inhibitor project, cell-based, FluxOR thallium flux, concentration-response (AID 652211).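 Also: potency is for inhibitors of the channel.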 It counts as functional.
Assay [12] deals with Potassium channel subfamily K member 3 (Rattus norvegicus, UniProt O54912). The assay is described as follows: SAR analysis for the identification of selective inhibitors of the two-pore domain potassium channel TASK1(KCNK3):Automated Electrophysiology. Type of assay: functional.
Assay [13] deals with Potassium channel subfamily K member 3 (Homo sapiens, UniProt O14649). Nature of the assay: TASK1 (KCNK3) potassium channel inhibitors, SAR follow-up, CHO cells, FluxOR thallium flux (AID 652212). It counts as functional.
For assay [14], the target named is Glucose-6-phosphate 1-dehydrogenase (Homo sapiens, UniProt P11413). Nature of the assay: human G6PD enzyme inhibitors, dose response, selectivity assay for P. falciparum G6PD inhibitor project, biochemical, fluorescence (AID 504792). Type of assay: functional.
A short description of assay [15]: Luminescence-based cell-based high throughput dose response assay to identify activators of the DAF-12 from the parasite S. stercoralis (ssDAF-12). It counts as functional.
Assay [16] has as its target T1, Oxysterols receptor LXR-beta. Nature of the assay: LXR agonists, Gal4 luciferase reporter, dose response, counter-screen for ssDAF-12 agonist project, cell-based, luminescence, HEK293, S. stercoralis campaign (AID 720737). It counts as functional. Conditions: read-out: IC50 (the source's name). In general terms: In a reporter assay the amount or activity of a reporter protein is the signal.

Calls of active or inactive are those of the source.

T2 sequence (Q9NPC2 whole entry): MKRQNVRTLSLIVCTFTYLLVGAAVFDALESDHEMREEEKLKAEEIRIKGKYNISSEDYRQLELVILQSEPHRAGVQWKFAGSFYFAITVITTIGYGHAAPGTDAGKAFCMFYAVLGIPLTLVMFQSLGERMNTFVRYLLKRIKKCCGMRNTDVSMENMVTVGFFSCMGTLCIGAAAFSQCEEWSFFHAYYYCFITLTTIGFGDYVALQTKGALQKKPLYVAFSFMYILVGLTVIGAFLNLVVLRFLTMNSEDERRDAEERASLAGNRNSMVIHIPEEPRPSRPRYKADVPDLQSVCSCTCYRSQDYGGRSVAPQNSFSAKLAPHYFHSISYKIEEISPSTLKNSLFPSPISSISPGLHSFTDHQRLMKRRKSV
Sequence of Glucose-6-phosphate 1-dehydrogenase (P11413 whole entry): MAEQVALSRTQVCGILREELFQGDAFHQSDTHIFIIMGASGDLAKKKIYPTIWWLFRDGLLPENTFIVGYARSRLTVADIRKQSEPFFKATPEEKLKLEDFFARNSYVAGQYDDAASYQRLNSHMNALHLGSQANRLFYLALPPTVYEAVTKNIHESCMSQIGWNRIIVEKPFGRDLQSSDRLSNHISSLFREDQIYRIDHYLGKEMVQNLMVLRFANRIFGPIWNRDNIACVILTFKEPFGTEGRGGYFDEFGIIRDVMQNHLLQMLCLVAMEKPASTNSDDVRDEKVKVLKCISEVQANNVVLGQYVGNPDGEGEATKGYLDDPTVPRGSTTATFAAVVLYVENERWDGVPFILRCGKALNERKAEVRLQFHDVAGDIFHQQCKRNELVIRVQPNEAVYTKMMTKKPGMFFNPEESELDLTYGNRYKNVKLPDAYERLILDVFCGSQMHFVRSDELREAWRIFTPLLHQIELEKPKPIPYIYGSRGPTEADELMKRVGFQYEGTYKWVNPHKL
Sequence of Potassium channel subfamily K member 3 (Rattus norvegicus, UniProt O54912) (O54912 whole entry, the tested form may be a part): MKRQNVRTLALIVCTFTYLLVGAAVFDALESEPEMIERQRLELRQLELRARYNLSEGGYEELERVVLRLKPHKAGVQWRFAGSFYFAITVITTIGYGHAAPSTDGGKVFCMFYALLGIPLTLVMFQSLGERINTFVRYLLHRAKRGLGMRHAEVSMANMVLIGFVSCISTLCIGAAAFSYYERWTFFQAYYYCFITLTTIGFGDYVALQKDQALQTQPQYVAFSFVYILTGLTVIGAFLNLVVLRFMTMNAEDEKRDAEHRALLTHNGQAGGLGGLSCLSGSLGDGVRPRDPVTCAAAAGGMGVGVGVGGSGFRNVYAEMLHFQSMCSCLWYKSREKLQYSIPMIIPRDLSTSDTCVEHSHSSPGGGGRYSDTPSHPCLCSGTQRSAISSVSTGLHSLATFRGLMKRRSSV
Sequence of Potassium channel subfamily K member 3 (Homo sapiens, UniProt O14649) (O14649 whole entry): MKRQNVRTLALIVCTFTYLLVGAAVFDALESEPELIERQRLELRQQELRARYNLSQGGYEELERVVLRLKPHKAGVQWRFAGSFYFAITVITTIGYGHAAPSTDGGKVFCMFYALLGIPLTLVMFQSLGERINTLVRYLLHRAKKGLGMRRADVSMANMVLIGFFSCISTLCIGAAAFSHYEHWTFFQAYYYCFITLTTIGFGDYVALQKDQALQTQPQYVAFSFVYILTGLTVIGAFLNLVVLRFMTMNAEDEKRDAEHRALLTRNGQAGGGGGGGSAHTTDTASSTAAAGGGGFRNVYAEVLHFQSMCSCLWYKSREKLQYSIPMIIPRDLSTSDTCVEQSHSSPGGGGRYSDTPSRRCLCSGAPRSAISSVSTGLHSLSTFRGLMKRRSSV

With `N#Cc1ccc(-c2ccc3c(c2)[C@@H]2[C@@H](CCN2S(=O)(=O)c2cccc(F)c2)[C@H](CO)N3)cc1`, the AC50 (as a rule, the midpoint of the concentration-response curve, whichever way the signal moves) was > 52000 nM (inactive) in assay [1] and 1180 nM (active) in [2].

As to `Cc1csc(NC(=O)c2oc3ccccc3c2C)n1`, the EC50 (in [3]; in the assay “cells”) was > 67600 nM (inactive) each time.

For `C/C(=N\NC(=O)c1c([N+](=O)[O-])c(C)nn1C)c1ccc(NC(=O)C2CCCC2)cc1`, the EC50 with BJ [4] was 1020 nM (active); in the assay on BJ [5], 476 nM (active); in the assay on BJ [6], 918 nM (inconclusive); in assay [7], 605 nM (active). Moreover, the AC50 in assay [8] was 12800 nM (active).

With `COc1ccc(CSc2nnc(-c3ccccc3)o2)cc1`, in assay [9], the AC50 was > 52000 nM (inactive).

Consider `CCOc1ccccc1NC(=O)c1cccc(NC(=O)c2ccccc2C(F)(F)F)c1`, for which the IC50 (commonly the concentration at which inhibition is half-maximal) was 520 nM (active) in assay [10], 320 nM (active) in assay [11], 6 nM (active) in assay [12] and 30 nM (active) in assay [13].

In the case of `COc1ccc(C(=O)/C=C2\Sc3ccccc3N2C)cc1`, the IC50 in assay [14] was > 80000 nM (inactive); in [15], > 67600 nM (inactive). Further, in assay [16], the EC50 was > 67600 nM (inactive).
